Experimental data from article PMC2880208 (Cancer research, 2010).
Like-named read-outs stand apart in the source and are kept apart here.

Assays:
[1] = cited from earlier work
[2] = test system: U87 cells; assay: Drug sensitivity; format: cell-based, human; conditions: U87, gefitinib alone 0.001-50 μM
[3] = test system: U87 cells; assay: Intracellular accumulation of topotecan in vitro; format: cell-based, human; conditions: topotecan 0.1 μM, gefitinib 1 or 10 μM, dose-dependent
[4] = test system: MT330 cells; assay: Intracellular accumulation of topotecan in vitro; format: cell-based, human; conditions: topotecan 0.1 μM, gefitinib 1 or 10 μM, dose-dependent
[5] = test system: MT330 cells; assay: Drug sensitivity; format: cell-based, human; conditions: MT330, gefitinib alone 0.001-50 μM
[6] = subcutaneous glioma xenografts, for 8 hours after a single oral dose of 55 mg/kg; cited from earlier work
[7] = CD1 nude mice; cited from earlier work
[8] = format: in vivo, CD1 athymic nude mice; conditions: CD1 athymic nude, mouse, iv, 4 mg/kg, 4 mg/kg i.v., mean ± SD
[9] = Steady-state
[10] = Intratumor distribution of topotecan; format: in vivo, CD1 nude mice; conditions: U87, TPT25: 25 μg/h topotecan, n=8

Question: With COc1cc2ncnc(Nc3ccc(F)c(Cl)c3)c2cc1OCCCN1CCOCC1 [gefitinib] as the molecule, how does the “Effect of gefitinib on topotecan lactone plasma clearance” value [1] read?
Answer: Its value is “halves”.

Question: And the “Effect on cell growth” value [2]?
Answer: Its value is “did not substantially affect growth”.

Question: And the “Enhancement of topotecan accumulation by gefitinib” value [3]?
Answer: The value was ≤ 36%.

Question: And the “Enhancement of topotecan accumulation by gefitinib” value [4]?
Answer: The value was ≤ 36%.

Question: What about the “Effect on cell growth” value [5] of the same molecule?
Answer: The value was “did not substantially affect growth”.

Question: What about the Intratumor gefitinib concentration [6] of the same molecule?
Answer: Its Intratumor gefitinib concentration is > 20 µM.

Question: Which “Unbound fraction in plasma” value [7] does the source give for CC[C@@]1(O)C(=O)OCc2c1cc1n(c2=O)Cc2cc3c(CN(C)C)c(O)ccc3nc2-1 [topotecan] here?
Answer: Its value is 27%.

Question: And the Kp ([8]; brain extracellular fluid (microdialysate) / plasma, Pbrain (brain ECF-to-plasma AUC ratio of unbound topotecan lactone), non-tumor-bearing CD1 nude mice, n=7)?
Answer: The Kp was 0.3 ± 0.11.

Question: What about the Kp ([8]; Pcontralateral (contralateral brain ECF-to-plasma AUC ratio), U87 tumor-bearing mice, n=5) of the same molecule?
Answer: The Kp was 0.42 ± 0.11.

Question: What about the “Css,plasma (unbound lactone)” value ([9]; 25 μg/h topotecan infusion, before gefitinib, n=15) of the same molecule?
Answer: Its value is 34 ± 8 ng/mL.

Question: And the “Css,tECF (unbound topotecan lactone in tumor ECF)” value ([9]; U87, 25 μg/h topotecan infusion, after gefitinib 200 mg/kg, n=10)?
Answer: Its value is 30 ± 12 ng/mL.

Question: And the “Css,tECF (unbound topotecan lactone in tumor ECF)” value ([9]; U87, 25 μg/h topotecan infusion, before gefitinib, n=10)?
Answer: Its value is 22 ± 10 ng/mL.

Question: What about the “Css,tECF (unbound topotecan lactone in tumor ECF)” value ([9]; U87, TPT12-GEF: 12.5 μg/h topotecan after 200 mg/kg gefitinib, n=3) of the same molecule?
Answer: Its value is 6.4 ± 0.8 ng/mL.

Question: And the “Atot,tumor (total topotecan lactone in tumor homogenate at steady-state)” value [10]?
Answer: The value was 47 ± 21 ng/mg tumor.
